The IC50 is the concentration that gives 50% inhibition.

In brackets after ≈: the same amount, converted by molar mass.

Common to all, as to type: biochemical
The target in assay [1] is T1, phosphodiesterase III from respiratory tract (Cavia porcellus, UniProt H0VIU9).
T1 construct: fractions were extracted from respiratory tract and heart of guinea pig; from tissue; host or cells: guinea pig respiratory tract
T1 sequence (H0VIU9 1-1132): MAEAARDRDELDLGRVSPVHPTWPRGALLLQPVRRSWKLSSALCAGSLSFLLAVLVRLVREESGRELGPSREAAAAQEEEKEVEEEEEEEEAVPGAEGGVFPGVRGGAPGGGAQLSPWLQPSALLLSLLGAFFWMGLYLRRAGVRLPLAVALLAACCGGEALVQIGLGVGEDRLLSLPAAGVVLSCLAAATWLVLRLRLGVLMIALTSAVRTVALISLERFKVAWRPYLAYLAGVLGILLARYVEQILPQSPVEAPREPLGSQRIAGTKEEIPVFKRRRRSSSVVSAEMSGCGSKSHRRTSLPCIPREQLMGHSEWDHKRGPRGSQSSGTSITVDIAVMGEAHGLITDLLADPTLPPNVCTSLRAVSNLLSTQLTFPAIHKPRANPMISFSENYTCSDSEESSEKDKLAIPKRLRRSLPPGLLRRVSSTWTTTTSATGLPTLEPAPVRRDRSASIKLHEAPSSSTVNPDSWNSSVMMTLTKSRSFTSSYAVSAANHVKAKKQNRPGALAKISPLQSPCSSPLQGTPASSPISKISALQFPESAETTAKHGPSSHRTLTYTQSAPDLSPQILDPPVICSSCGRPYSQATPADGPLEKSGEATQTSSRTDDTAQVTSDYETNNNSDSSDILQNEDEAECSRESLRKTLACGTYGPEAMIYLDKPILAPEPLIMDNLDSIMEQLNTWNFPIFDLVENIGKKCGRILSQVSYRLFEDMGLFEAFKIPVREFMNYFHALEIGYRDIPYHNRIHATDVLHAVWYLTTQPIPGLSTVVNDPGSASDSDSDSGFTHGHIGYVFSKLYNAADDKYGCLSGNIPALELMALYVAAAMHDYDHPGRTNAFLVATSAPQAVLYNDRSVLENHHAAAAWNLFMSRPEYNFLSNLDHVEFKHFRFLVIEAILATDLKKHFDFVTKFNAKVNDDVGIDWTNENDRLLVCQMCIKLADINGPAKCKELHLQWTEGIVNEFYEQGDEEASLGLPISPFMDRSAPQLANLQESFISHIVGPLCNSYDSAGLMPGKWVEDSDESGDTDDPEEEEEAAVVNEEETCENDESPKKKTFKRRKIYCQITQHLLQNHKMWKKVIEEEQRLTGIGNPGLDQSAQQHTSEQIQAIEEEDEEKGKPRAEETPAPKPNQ
Kind of assay: Measurement of phosphodiesterase-inhibiting activity, respiratory tract, III. As to conditions: guinea pig respiratory tract; 1 μM cAMP or cGMP substrate, 60 minutes at 30° C., EIA. The procedure: (§1) Measurement of phosphodiesterase-inhibiting activity
(§2) Phosphodiestorase-containing fractions were extracted from respiratory tract and heart of guinea pig according to the method of Nicholson et al (Br. J. Pharmacol., 97, 889-897 (1989)), and used as enzyme solutions. The measurement of phosphodiesterase-inhibiting activity was performed by quantitatively determining (Linden et al, J. Immunol. Methods., 151, 209-216 (1992)) the cyclic AMP (cAMP) or cyclic GMP (cGMP) that remains as a result of enzymic reaction (Thompson et al, Biochemistry, 10, 311-316 (1971)) through enzyme immunoassay (EIA).
(§3) This was performed according to the method of Thompson et al. The enzyme solution was placed in a test tube, and 1 μM of cAMP or cGMP was added as a substrate. After reacting for 60 minutes at 30° C., the test tube was dipped for 2 minutes into boiling bath to inactivate phosphodiesterase, thus stopping the reaction. The testing compound was added to the test tube simultaneously with substrate.
(§4) 2) Quantitative determination through EIA […]

Assay [2] concerns the target T2, phosphodiesterase II from respiratory tract (Cavia porcellus, UniProt A0A286XUV5).
T2 construct: fractions were extracted from respiratory tract and heart of guinea pig; from tissue; host or cells: guinea pig respiratory tract
T2 sequence (A0A286XUV5 22-936): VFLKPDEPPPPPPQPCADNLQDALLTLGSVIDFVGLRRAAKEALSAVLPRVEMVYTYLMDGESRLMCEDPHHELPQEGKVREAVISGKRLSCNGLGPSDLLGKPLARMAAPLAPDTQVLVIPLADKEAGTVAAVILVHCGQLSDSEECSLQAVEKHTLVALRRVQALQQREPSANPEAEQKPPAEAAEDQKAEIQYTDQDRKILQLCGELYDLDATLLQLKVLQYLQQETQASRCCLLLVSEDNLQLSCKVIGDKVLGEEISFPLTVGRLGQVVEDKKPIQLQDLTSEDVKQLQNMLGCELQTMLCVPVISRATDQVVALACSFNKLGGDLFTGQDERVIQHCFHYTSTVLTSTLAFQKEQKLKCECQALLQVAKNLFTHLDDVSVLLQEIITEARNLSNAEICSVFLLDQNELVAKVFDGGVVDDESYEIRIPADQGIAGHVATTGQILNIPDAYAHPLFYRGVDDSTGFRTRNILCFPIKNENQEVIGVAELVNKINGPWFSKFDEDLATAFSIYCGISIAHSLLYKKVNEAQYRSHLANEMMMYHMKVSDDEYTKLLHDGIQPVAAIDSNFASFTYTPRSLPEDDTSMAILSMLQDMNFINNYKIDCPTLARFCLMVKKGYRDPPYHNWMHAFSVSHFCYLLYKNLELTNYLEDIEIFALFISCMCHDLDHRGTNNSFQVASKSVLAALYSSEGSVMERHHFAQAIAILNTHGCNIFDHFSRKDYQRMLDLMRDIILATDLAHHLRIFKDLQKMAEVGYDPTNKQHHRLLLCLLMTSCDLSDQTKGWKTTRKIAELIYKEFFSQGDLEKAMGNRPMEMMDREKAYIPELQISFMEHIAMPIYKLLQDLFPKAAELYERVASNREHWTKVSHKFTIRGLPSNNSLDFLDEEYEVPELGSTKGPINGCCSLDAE
Kind of assay: Measurement of phosphodiesterase-inhibiting activity, respiratory tract, II. As to conditions: guinea pig respiratory tract; 1 μM cAMP or cGMP substrate, 60 minutes at 30° C., EIA. The procedure: as §1, §2, §3, §4

For assay [3], the target named is phosphodiesterase I from heart. Kind of assay: Measurement of phosphodiesterase-inhibiting activity, heart, I. As to conditions: guinea pig heart; 1 μM cAMP or cGMP substrate, 60 minutes at 30° C., EIA. The procedure:
as §1, §2, §3, §4

The target in assay [4] is phosphodiesterase IV from respiratory tract. Kind of assay: Measurement of phosphodiesterase-inhibiting activity, respiratory tract, IV. As to conditions: guinea pig respiratory tract; 1 μM cAMP or cGMP substrate, 60 minutes at 30° C., EIA. The procedure:
as §1, §2, §3, §4

For assay [5], the target named is T3, phosphodiesterase II from heart (Cavia porcellus, UniProt A0A286XUV5).
T3 construct: fractions were extracted from respiratory tract and heart of guinea pig; from tissue; host or cells: guinea pig heart
T3 sequence (A0A286XUV5 22-936): T2 sequence (A0A286XUV5 22-936)
Kind of assay: Measurement of phosphodiesterase-inhibiting activity, heart, II. The conditions noted are these: guinea pig heart; 1 μM cAMP or cGMP substrate, 60 minutes at 30° C., EIA. The procedure: as §1, §2, §3, §4

Assay [6] concerns the target T4, phosphodiesterase III from heart (Cavia porcellus, UniProt H0VIU9).
T4 construct: fractions were extracted from respiratory tract and heart of guinea pig; from tissue; host or cells: guinea pig heart
T4 sequence (H0VIU9 1-1132): T1 sequence (H0VIU9 1-1132)
Kind of assay: Measurement of phosphodiesterase-inhibiting activity, heart, III. The conditions noted are these: guinea pig heart; 1 μM cAMP or cGMP substrate, 60 minutes at 30° C., EIA. On the procedure: as §1, §2, §3, §4

Assay [7] has as its target T5, phosphodiesterase V from respiratory tract (Cavia porcellus, UniProt H0VD23).
T5 construct: fractions were extracted from respiratory tract and heart of guinea pig; from tissue; host or cells: guinea pig respiratory tract
Kind of assay: Measurement of phosphodiesterase-inhibiting activity, respiratory tract, V. As to conditions: guinea pig respiratory tract; 1 μM cAMP or cGMP substrate, 60 minutes at 30° C., EIA. On the procedure:
as §1, §2, §3, §4

On to `CC1CC(=O)NN=C1c1c(C(C)C)nn2ccccc12` (stereo not shown) [Example 36], for which the IC50 was 14.8 µM in assay [1]; more than 111 µM in assay [2]; more than 111 µM in assay [5]; 18.5 µM in assay [6]; 0.37 µM in assay [7]. The “IC50 Heart I” value in assay [3] is more than 30 µg/mL. Moreover, in assay [4], the “IC50 Respiratory tract IV” value turned out to be 5 µg/mL (≈ 18.5 µM).

The values above are taken from patent publication US6265577A, “Pyrazolopyridylpyridazinone derivatives and process for the preparation thereof” (Kyorin Pharmaceuticals Co., Ltd., priority 1996, dated 2001).
